Laboratory results published in PMC5338256, “D-form KLKLLLLLKLK-NH2 peptide exerts higher antimicrobial properties than its L-form counterpart via an association with bacterial cell wall components” (Scientific Reports, 2017).
Non-standard residues stand in square brackets, D forms with d. Residues, ends and D or L forms follow the SMILES beside them.

How the values were obtained:
S. aureus [1] = assay: Assay for antimicrobial activity (10 min exposure, CFU); type: cell-based, Staphylococcus aureus (NBRC100910); settings: for antimicrobial activity (CFU), D-form compared with L-form: 10 min at 37 °C
Experimental: (§1) S. aureus (NBRC100910), E. coli W3110 (NBRC12713), E. hirae (NBRC3181), C. albicans (NBRC1385), and S. Typhimurium 14028s (ATCC14028)[2] were used in this study. S. aureus, E. coli, and S. Typhimurium were grown at 37 °C with aeration in Muller-Hinton II medium (BD Biosciences). E. hirae was grown at 37 °C in LB medium (Nacalai Tesque, Inc.) containing 0.5% glucose (w/v). C. albicans was grown at room temperature with aeration in YM medium (BD Biosciences). All experiments were conducted using bacterial cells and C. albicans in the logarithmic-phase of growth.
(§2) Bacteria and C. albicans were suspended in growth medium. Peptides suspended in dimethyl sulfoxide were serially diluted in 10 mM phosphate buffer (pH 6.0) containing 130 mM sodium chloride, 0.2% bovine serum albumin as described previously. In order to examine the effects of bovine serum albumin on the assay, 10 mM phosphate buffer (pH 6.0) containing 130 mM sodium chloride, was used for the dilution of peptides. Peptide solution (500 μl) was added to 500 μl of bacteria suspensions and then the mixture was incubated at 37 °C for 10 min. In order to examine the effects of culture medium components on the assay, bacteria suspension was prepared with 10 mM phosphate buffer (pH 6.0) containing 130 mM sodium chloride. Alternatively, 500 μl of peptide solution was added to 500 μl of C. albicans suspensions and the mixture was incubated at room temperature for 10 min. The inhibitory effects of the bacterial components were analyzed by incubating 450 μl of S. aureus suspension with 500 μl of peptide solution plus 50 μl of inhibitor samples at 37 °C for 10 min. Then, the peptide/bacteria suspensions were diluted and plated onto LB agar, LB agar containing 0.5% glucose, or YM agar. After cultivation of the plates, colony forming units (CFU) in the peptide/bacteria suspension were calculated based on the average of triplicate plates.

E. hirae = assay: as above; type: cell-based, Enterococcus hirae (NBRC3181); settings: 10 min at 37 °C, triplicate plates
Experimental: as §1
Bacteria and C. albicans were suspended in growth medium. Peptides suspended in dimethyl sulfoxide were serially diluted in 10 mM phosphate buffer (pH 6.0) containing 130 mM sodium chloride, 0.2% bovine serum albumin as described previously. In order to examine the effects of bovine serum albumin on the assay, 10 mM phosphate buffer (pH 6.0) containing 130 mM sodium chloride, was used for the dilution of peptides. […] The inhibitory effects of the bacterial components were analyzed by incubating 450 μl of S. aureus suspension with 500 μl of peptide solution plus 50 μl of inhibitor samples at 37 °C for 10 min. […] After cultivation of the plates, colony forming units (CFU) in the peptide/bacteria suspension were calculated based on the average of triplicate plates.

Staphylococcus aureus = settings: cited from earlier work
From the text: We determined minimum inhibitory concentrations (MICs) of other ant ...

S. aureus peptidoglycan = assay: Peptidoglycan-binding assay; set-up: species or system Staphylococcus aureus; settings: biotin-labeled peptides on immobilized peptidoglycan; 37 °C, 2 h; avidin-labeled peroxidase, absorbance 450 nm; triplicate assays
Experimental: Peptidoglycan-binding assays were performed as previously described with some modifications. Peptidoglycan from S. aureus (100 μg/ml) was suspended in 0.2% trifluoroacetic acid and sonicated twice for 10 sec at setting 1 using a Branson sonifier model S-150D. The peptidoglycan suspension (50 μl) was used to coat the wells of a flat bottom 96-well microplate (Thermo Fisher Scientific). The plate was incubated at room temperature until the water evaporated. The plate was placed at 60 °C for 1 h to dry out completely, and then blocked with 200 μl of 5 mg/ml bovine serum albumin in binding buffer (10 mM phosphate buffer (pH 6.0) containing 130 mM sodium chloride, 0.05% Tween 20, and 0.01% trifluoroacetic acid) at 37 °C for 2 h. The plate was washed four times with 200 μl of binding buffer. Biotin-labeled peptides in 100 μl of binding buffer containing 0.5% dimethyl sulfoxide were added to the wells and incubated at 37 °C for 2 h. Detection of biotin-labeled peptides was performed using Vectastain ABC reagent (Vector Laboratories) according to manufacturer’s instructions. The wells were washed four times with binding buffer, then 100 μl of avidin-labeled peroxidase was added to each well, and the plate was incubated at 37 °C for 1 h. The wells were washed again as described above. […] Absorbance was measured at 450 nm.

S. aureus [2] = assay: Inhibition of antimicrobial activity by bacterial cell wall components; type: cell-based, Staphylococcus aureus; settings: D-form 1.9 μg/ml, L-form 7.5 μg/ml, 10 min
Experimental: as §2
Peptidoglycan (120 μg) prepared from S. aureus was added to 1 mg/ml of lysozyme in phosphate buffered saline (150 μl)[33]. Peptidoglycan without lysozyme and lysozyme without peptidoglycan were also prepared as controls. Samples were incubated overnight at 37 °C, and then incubated at 100 °C for 15 min to inactivate lysozyme. For heat-inactivation of peptidoglycan, 600 μg of peptidoglycan suspended in water (300 μl) was incubated at 100 °C for 15 min. The samples were sonicated for 10 sec at setting 1 using a Branson sonifier model S-150D. These samples were used as inhibitor samples for antimicrobial activity assays.

CC(C)C[C@@H](NC(=O)[C@H](N)CCCCN)C(=O)N[C@H](CCCCN)C(=O)N[C@H](CC(C)C)C(=O)N[C@H](CC(C)C)C(=O)N[C@H](CC(C)C)C(=O)N[C@H](CC(C)C)C(=O)N[C@H](CC(C)C)C(=O)N[C@H](CCCCN)C(=O)N[C@H](CC(C)C)C(=O)N[C@H](CCCCN)C(N)=O [D-form KLKLLLLLKLK-NH2] (H-[dK][dL][dK][dL][dL][dL][dL][dL][dK][dL][dK]-NH2; N-terminus assumed)
antimicrobial activity relative to the standard assay condition (S. aureus [1]; 10 min, in the absence of culture medium and bovine serum albumin): lower | antimicrobial activity (CFU), D-form compared with L-form (S. aureus [1]; in the absence of culture medium and/or bovine serum albumin): higher antimicrobial activity | antimicrobial activity (CFU), D-form compared with L-form (S. aureus [1]; standard assay with culture medium and 0.2% BSA, triplicate plates): higher antimicrobial activity | peptide concentration at which D-form and L-form displayed similar antimicrobial activity (S. aureus [1]; 10 min exposure): 1.9 µg/mL | antimicrobial activity (CFU), D-form compared with L-form (E. hirae): higher antimicrobial activity | antimicrobial activity, D-form compared with L-form (Staphylococcus aureus): higher antimicrobial activity | affinity for S. aureus peptidoglycan, D-form compared with L-form (S. aureus peptidoglycan): higher affinity | inhibition of the antimicrobial effect by S. aureus peptidoglycan (S. aureus [2]; 40 μg/ml S. aureus peptidoglycan): almost inhibited | inhibition of the antimicrobial activity by lipopolysaccharide from E. coli (S. aureus [2]): preferentially inhibited | inhibition of the antimicrobial activity by peptidoglycan from E. coli (S. aureus [2]): weak inhibitory effect | inhibition of the antimicrobial activity by synthetic E. coli lipid A (S. aureus [2]): preferentially inhibited | inhibition of the antimicrobial effect by lipoteichoic acid from S. aureus (S. aureus [2]): inhibited the antimicrobial effect of both D-form and L-form peptides similarly
